Measurements reported in PubChem BioAssay AID1963986 (Molecular Pharmacology Branch, DTP, NCI, 2024).

Tested on: 171881-019-R-J1-PDC tumor spheroid viability
Assay: Anticancer human tumor 171881-019-R-J1-PDC patient-derived invasive breast carcinoma cell line growth inhibition [PI3K]
Conditions: spheroids with HUVEC and MSC; for IC50: curve of first compound; for viability, T/C: stronger effect = lower value; active = viability on the fitted dose curve at most 10% of control; inactive = the rest
Outline: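 Viability of mixed-cell spheroids was determined after exposure to pairwise combinations, one partner being inavolisib, alpelisib, duvelisib or copanlisib. Highest tested concentration matched clinical Cmax where known and 10 microM where not, descending in half-log steps.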

[1] = second compound 0.00316 µM, first compound 0.0316 µM
[2] = second compound 0.00316 µM, first compound 0.1 µM
[3] = second compound 0.00316 µM, first compound 0.316 µM
[4] = second compound 0.00316 µM, first compound 1 µM
[5] = second compound 0.00316 µM, first compound 3.16 µM
[6] = second compound 0.00316 µM, first compound 10 µM
[7] = second compound 0.01 µM, first compound 0.0316 µM
[8] = second compound 0.01 µM, first compound 0.1 µM
[9] = second compound 0.01 µM, first compound 0.316 µM
[10] = second compound 0.01 µM, first compound 1 µM
[11] = second compound 0.01 µM, first compound 3.16 µM
[12] = second compound 0.01 µM, first compound 10 µM
[13] = second compound 0.0316 µM, first compound 0.0316 µM
[14] = second compound 0.0316 µM, first compound 0.1 µM
[15] = second compound 0.0316 µM, first compound 0.316 µM
[16] = second compound 0.0316 µM, first compound 1 µM
[17] = second compound 0.0316 µM, first compound 3.16 µM
[18] = second compound 0.0316 µM, first compound 10 µM
[19] = second compound 0.1 µM, first compound 0.0316 µM
[20] = second compound 0.1 µM, first compound 0.1 µM
[21] = second compound 0.1 µM, first compound 0.316 µM
[22] = second compound 0.1 µM, first compound 1 µM
[23] = second compound 0.1 µM, first compound 3.16 µM
[24] = second compound 0.1 µM, first compound 10 µM
[25] = second compound 0.316 µM, first compound 0.0316 µM
[26] = second compound 0.316 µM, first compound 0.1 µM
[27] = second compound 0.316 µM, first compound 0.316 µM
[28] = second compound 0.316 µM, first compound 1 µM
[29] = second compound 0.316 µM, first compound 3.16 µM
[30] = second compound 0.316 µM, first compound 10 µM
[31] = second compound 1 µM, first compound 0.0316 µM
[32] = second compound 1 µM, first compound 0.1 µM
[33] = second compound 1 µM, first compound 0.316 µM
[34] = second compound 1 µM, first compound 1 µM
[35] = second compound 1 µM, first compound 3.16 µM
[36] = second compound 1 µM, first compound 10 µM
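Also: spheroids exposed to compound for 7 days before viability read.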
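For viability, T/C in this document: 100% = DMSO vehicle-treated spheroids.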

CC1(C)CCC(CN2CCN(c3ccc(C(=O)NS(=O)(=O)c4ccc(NCC5CCOCC5)c([N+](=O)[O-])c4)c(Oc4cnc5[nH]ccc5c4)c3)CC2)=C(c2ccc(Cl)cc2)C1 + CC(Nc1ccc2c(c1)OCCn1cc(N3C(=O)OCC3C(F)F)nc1-2)C(N)=O
2.72 µM: IC50 (second compound 0.01 µM)
< 0.0316 µM: IC50 (second compound 0.1 µM) | IC50 (second compound 0.316 µM) | IC50 (second compound 1 µM)
1.59 µM: IC50 (second compound 0.0316 µM)
inactive: viability, T/C [1] 83% | viability, T/C [2] 73.7% | viability, T/C [3] 91.5% | viability, T/C [4] 88.1% | viability, T/C [5] 55.9% | viability, T/C [6] 15% | viability, T/C [7] 79.2% | viability, T/C [8] 87.3% | viability, T/C [9] 76.8% | viability, T/C [10] 72.5% | viability, T/C [11] 46.5% | viability, T/C [12] 13.9% | viability, T/C [13] 55.9% | viability, T/C [14] 56.8% | viability, T/C [15] 61.6% | viability, T/C [16] 55.3% | viability, T/C [17] 41.2% | viability, T/C [18] 10.3% | viability, T/C [19] 41.6% | viability, T/C [20] 41.2% | viability, T/C [21] 40.6% | viability, T/C [22] 43.4% | viability, T/C [23] 36.5% | viability, T/C [24] 7.86% | viability, T/C [25] 28.6% | viability, T/C [26] 27.1% | viability, T/C [27] 28.5% | viability, T/C [28] 28.3% | viability, T/C [29] 29.5% | viability, T/C [30] 5% | viability, T/C [31] 20.9% | viability, T/C [32] 20.9% | viability, T/C [33] 22% | viability, T/C [34] 23.4% | viability, T/C [35] 22% | viability, T/C [36] 6.08%
3.73 µM: IC50 (second compound 0.00316 µM)

CCCS(=O)(=O)Nc1ccc(F)c(C(=O)c2c[nH]c3ncc(-c4ccc(Cl)cc4)cc23)c1F + CC(Nc1ccc2c(c1)OCCn1cc(N3C(=O)OCC3C(F)F)nc1-2)C(N)=O
< 0.0316 µM: IC50 (second compound 0.316 µM) | IC50 (second compound 1 µM)
5.75 µM: IC50 (second compound 0.01 µM)
5.81 µM: IC50 (second compound 0.00316 µM)
4.85 µM: IC50 (second compound 0.0316 µM)
inactive: viability, T/C [1] 92.3% | viability, T/C [2] 109% | viability, T/C [3] 92.9% | viability, T/C [4] 109% | viability, T/C [5] 94.6% | viability, T/C [6] 10% | viability, T/C [7] 78.4% | viability, T/C [8] 87.2% | viability, T/C [9] 101% | viability, T/C [10] 102% | viability, T/C [11] 92.6% | viability, T/C [12] 11.1% | viability, T/C [13] 63.3% | viability, T/C [14] 64.9% | viability, T/C [15] 81.9% | viability, T/C [16] 83.3% | viability, T/C [17] 83% | viability, T/C [19] 46.7% | viability, T/C [20] 51.4% | viability, T/C [21] 53.9% | viability, T/C [22] 57% | viability, T/C [23] 61.7% | viability, T/C [25] 32.5% | viability, T/C [26] 32.4% | viability, T/C [27] 42% | viability, T/C [28] 44.7% | viability, T/C [29] 42.3% | viability, T/C [31] 21% | viability, T/C [32] 28.4% | viability, T/C [33] 28.4% | viability, T/C [34] 33.5% | viability, T/C [35] 35.6% | viability, T/C [36] 3.55%
active: viability, T/C [18] 7.38% | viability, T/C [24] 5.11% | viability, T/C [30] 5%
3.48 µM: IC50 (second compound 0.1 µM)

Cn1ncnc1[C@H]1c2n[nH]c(=O)c3cc(F)cc(c23)N[C@@H]1c1ccc(F)cc1 + CC(Nc1ncnc2nc[nH]c12)c1cc2cccc(Cl)c2c(=O)n1-c1ccccc1
inactive: viability, T/C (second compound 0.0316 µM, first compound 0.000316 µM) 88.4% | viability, T/C (second compound 0.0316 µM, first compound 0.001 µM) 96.4% | viability, T/C (second compound 0.0316 µM, first compound 0.00316 µM) 93.4% | viability, T/C (second compound 0.0316 µM, first compound 0.01 µM) 104% | viability, T/C [13] 97.3% | viability, T/C [14] 92.1% | viability, T/C (second compound 0.1 µM, first compound 0.000316 µM) 102% | viability, T/C (second compound 0.1 µM, first compound 0.001 µM) 98.6% | viability, T/C (second compound 0.1 µM, first compound 0.00316 µM) 88.8% | viability, T/C (second compound 0.1 µM, first compound 0.01 µM) 109% | viability, T/C [19] 90.6% | viability, T/C [20] 102% | viability, T/C (second compound 0.316 µM, first compound 0.000316 µM) 93.2% | viability, T/C (second compound 0.316 µM, first compound 0.001 µM) 99.5% | viability, T/C (second compound 0.316 µM, first compound 0.00316 µM) 92.1% | viability, T/C (second compound 0.316 µM, first compound 0.01 µM) 106% | viability, T/C [25] 90.1% | viability, T/C [26] 95.8% | viability, T/C (second compound 1 µM, first compound 0.000316 µM) 82% | viability, T/C (second compound 1 µM, first compound 0.001 µM) 100% | viability, T/C (second compound 1 µM, first compound 0.00316 µM) 105% | viability, T/C (second compound 1 µM, first compound 0.01 µM) 103% | viability, T/C [31] 97.1% | viability, T/C [32] 98.2% | viability, T/C (second compound 3.16 µM, first compound 0.000316 µM) 83.5% | viability, T/C (second compound 3.16 µM, first compound 0.001 µM) 91.3% | viability, T/C (second compound 3.16 µM, first compound 0.00316 µM) 85.1% | viability, T/C (second compound 3.16 µM, first compound 0.01 µM) 93.2% | viability, T/C (second compound 3.16 µM, first compound 0.0316 µM) 92.5% | viability, T/C (second compound 3.16 µM, first compound 0.1 µM) 78.1% | viability, T/C (second compound 10 µM, first compound 0.000316 µM) 61.6% | viability, T/C (second compound 10 µM, first compound 0.001 µM) 64.7% | viability, T/C (second compound 10 µM, first compound 0.00316 µM) 60.5% | viability, T/C (second compound 10 µM, first compound 0.01 µM) 60.8% | viability, T/C (second compound 10 µM, first compound 0.0316 µM) 57.2% | viability, T/C (second compound 10 µM, first compound 0.1 µM) 57.6%
> 0.1 µM: IC50 (second compound 0.0316 µM) | IC50 (second compound 0.1 µM) | IC50 (second compound 0.316 µM) | IC50 (second compound 1 µM) | IC50 (second compound 3.16 µM) | IC50 (second compound 10 µM)
